Test results as given in patent publication US8993585B2, “Cyclic amine substituted pyrimidinediamines as PKC inhibitors” (Rigel Pharmaceuticals, Inc., priority 2007, dated 2015).

These compounds were tested on Human primary T cells (assay: IL-2 ELISA, Human Primary T Cell, Anti-CD3+CD28+ (Example 3)). Details: Homo sapiens, T-cell, 24 h, anti-CD3+CD28 stimulation.
Type: cell-based
Summary of the method: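 IL-2 was read by ELISA after stimulation on wells pre-coated with 1 ug/ml αCD3 and 5 μg/ml αCD28. Before this, 100,000 human primary T cells per well spent 1 h at 37 °C with test compound in Yssel's medium. The counter-screen replaced antibody stimulation with PMA (0.5 ng/ml final) and ionomycin (0.1 uM final).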

IC50 | Compound
244 nM | CN1C(=O)COc2cc(Nc3ncc(F)c(NC4CC(C)(C)N(C)C(C)(C)C4)n3)ccc21 [II-6]
5600 nM | CC1(C)CC(Nc2nc(Nc3ccc4c(c3)oc(=O)n4CCN3CCOCC3)ncc2F)CC(C)(C)N1 [II-168]
2630 nM | CN1C(C)(C)CC(Nc2nc(Nc3ccc4c(c3)OC3(CCCCC3)O4)ncc2F)CC1(C)C [II-114]
3690 nM | CN1C(C)(C)CC(Nc2nc(Nc3ccc4c(c3)OC(C)(C)O4)ncc2F)CC1(C)C [II-103]
2140 nM | CN1C(C)(C)CC(Nc2nc(Nc3cc4c(cc3F)OC(F)(F)O4)ncc2F)CC1(C)C [II-176]
1130 nM | CC(C)n1c(=O)oc2cc(Nc3ncc(C#N)c(NC4CC(C)(C)NC(C)(C)C4)n3)ccc21 [II-162]
176 nM | COc1cc(Nc2ncc(F)c(NC3C[C@H](C)N(C)[C@@H](C)C3)n2)cc(-n2nnnc2C)c1 (stereo partly drawn) [IV-1, 5-Fluoro-N2-[3-methoxy-5-(5-methyl-tetrazol-1-yl)]phenyl-N4-(1,2,6,-trimethylpiperidin-4-yl)-2,4-pyrimidinediamine, trans isomer]
840 nM | CN1C(C)(C)CC(Nc2nc(Nc3nc(-c4ccc5c(c4)OCCO5)cs3)ncc2F)CC1(C)C [II-132]
1000 nM | CN1C(C)(C)CC(Nc2nc(Nc3nc(-c4ccc(F)cc4F)cs3)ncc2F)CC1(C)C [II-141]
4880 nM | CN1CCc2cc(Nc3ncc(F)c(NC4CC(C)(C)N(C)C(C)(C)C4)n3)ccc21 [II-51]
710 nM | COc1ccc(-c2csc(Nc3ncc(F)c(NC4CC(C)(C)N(C)C(C)(C)C4)n3)n2)cc1OC [II-138]
1080 nM | CN1C(C)(C)CC(Nc2nc(Nc3nc4ccc(S(C)(=O)=O)cc4s3)ncc2F)CC1(C)C [II-144]
327 nM | CC(C)n1c(=O)oc2cc(Nc3ncc(C#N)c(NC4CC(C)(C)N(C)C(C)(C)C4)n3)ccc21 [II-70]
967 nM | CN1C(C)(C)CC(Nc2nc(Nc3ccc4c(cnn4C)c3)ncc2F)CC1(C)C [II-39]
2220 nM | CN1C(C)(C)CC(Nc2nc(Nc3nc(-c4ccc(N5CCCC5)cc4)cs3)ncc2F)CC1(C)C [II-133]
229 nM | CC(C)n1c(=O)oc2cc(Nc3ncc(F)c(NC4CC(C)(C)N(C)C(C)(C)C4)n3)ccc21 [II-47]

The next lines start with the compound.

Compound | IC50
CC(=O)N1C(C)CN(c2cc(Nc3ncc(F)c(NC4CC(C)(C)N(C)C(C)(C)C4)n3)ccc2Cl)CC1C (stereo not drawn) [Compound I-251] | 384 nM
COC(=O)C(C)N1C(C)(C)CC(Nc2nc(Nc3ccc(C)c(C#N)c3)ncc2F)CC1(C)C (stereo not drawn) [Compound I-296] | 1040 nM
CC1(C)CC(Nc2nc(Nc3ccc(-c4ccc(N5CCOCC5)nc4)c(C#N)c3)ncc2F)CC(C)(C)N1 [Compound I-429] | 770 nM
Cc1ccc(C)n1-c1cc(Nc2ncc(F)c(NC3CC(C)(C)N(C)C(C)(C)C3)n2)ccc1OCCN1CCCC1 [Compound I-440] | 520 nM
Cc1ccc(Nc2ncc(F)c(N(Cc3ccc4ccccc4n3)C3CC(C)(C)N(C)C(C)(C)C3)n2)cc1C#N [Compound I-320] | 6140 nM
COc1cc(Nc2ncc(F)c(N(Cc3ccc4ccccc4c3)C3CC(C)(C)N(C)C(C)(C)C3)n2)cc(OC)c1 [Compound I-314] | 2570 nM
COc1cc(Nc2ncc(F)c(N(Cc3ccccc3)C3CC(C)(C)N(C)C(C)(C)C3)n2)cc(OC)c1 [Compound I-308] | 809 nM
COc1ccc(Nc2ncc(F)c(N(Cc3ccc4ccccc4c3)C3CC(C)(C)N(C)C(C)(C)C3)n2)cc1OC(F)F [Compound I-316] | 3440 nM
COc1cc(Nc2ncc(OC)c(NC3CC(C)(C)N(C)C(C)(C)C3)n2)cc(-n2nnnc2C)c1 [Compound I-424] | 1010 nM
COc1cc(Nc2ncc(C)c(NC3CC(C)(C)N(C)C(C)(C)C3)n2)cc(OC)c1 [Compound I-425] | 1140 nM
COc1cc(O)cc(Nc2ncc(F)c(NC3CC(C)(C)NC(C)(C)C3)n2)c1 [Compound I-453] | 1050 nM
COc1ccc(Nc2ncc(F)c(N(Cc3ccc(-c4ccccc4)cc3)C3CC(C)(C)N(C)C(C)(C)C3)n2)cc1OC(F)F [Compound I-319] | 2850 nM

Same assay, conditions: anti-CD3+CD28 stimulation, 24 hours

IC50 | Compound
410 nM | CC(C)N1C(=O)C2(CCC2)Oc2cc(Nc3ncc(F)c(NC4CC(C)(C)N(C)C(C)(C)C4)n3)ccc21 [II-165]
3620 nM | CCN(CC)C1CCC(Nc2nc(Nc3ccc(N4CCN(C)CC4)c(C(F)(F)F)c3)ncc2F)CC1 (stereo not drawn) [IV-7, N4-(4-Diethylamino)cyclohexyl-5-fluoro-N2-[4-(4-methylpiperazino)-3-trifluoromethyl]phenyl-2,4-pyrimidinediamine]

Further lines, the compound ahead of its results:

Compound | IC50
Cc1nnnn1-c1ccc(Nc2ncc(F)c(NC3CC(C)(C)N(C)C(C)(C)C3)n2)cc1 [Compound I-454] | 6250 nM
5-Fluoro-N2-(4-methyl-cyano)phenyl-N4-(1,2,2,5,5-pentamethylpyrrolidin-3-yl)-2,4-pyrimidinediamine [Compound I-278] | 1280 nM
CN1C(C)(C)CC(Nc2nc(Nc3ccc(N4CCNCC4)c(C(F)(F)F)c3)ncc2[N+](=O)[O-])CC1(C)C [Compound I-75] | 11300 nM
CN1C(C)(C)CC(Nc2nc(Nc3ccc(Cl)c(N4CCN(S(C)(=O)=O)CC4)c3)ncc2F)CC1(C)C [Compound I-68] | 589 nM
COc1cc(Nc2ncc(F)c(NC3CC(C)(C)N(C)C(C)(C)C3)n2)cc(OC)c1 [Compound I-307] | 327 nM
Cc1cc(Nc2ncc(F)c(NC3CC(C)(C)N(C)C(C)(C)C3)n2)ccc1-n1cnnn1 [Compound I-397] | 1980 nM
CN1C(C)(C)CC(Nc2nc(Nc3ccc(N4CCSCC4)c(C(F)(F)F)c3)ncc2F)CC1(C)C [Compound I-331] | 806 nM
CN1C(C)(C)CC(Nc2nc(Nc3ccc(N4CCCC4)c(OC(F)F)c3)ncc2F)CC1(C)C [Compound I-237] | 887 nM
COc1ccc(Nc2ncc(F)c(NC3CC(C)(C)N(C)C3(C)C)n2)cc1OC (stereo not drawn) [Compound I-281, 5-Fluoro-N2-(3,4-dimethoxy)phenyl-N4-(1,2,2,5,5-pentamethylpyrrolidin-3-yl)-2,4-pyrimidinediamine] | 17100 nM
CN1C(C)(C)CC(Nc2nc(Nc3cc(F)cc(F)c3)ncc2F)CC1(C)C [Compound I-354] | 595 nM
CN1CCN(Cc2ccc(Nc3ncc(F)c(NC4CC(C)(C)N(C)C(C)(C)C4)n3)cc2Cl)CC1 [Compound I-57] | 364 nM
CN1CCN(c2ccc(Nc3ncc(F)c(NC4CC(C)(C)NC(C)(C)C4)n3)cc2C(F)(F)F)CC1 [Compound I-255] | 236 nM
CN1C(C)(C)CC(Nc2nc(Nc3ccc(F)c(C#N)c3)ncc2C(F)(F)F)CC1(C)C [Compound I-170] | 2650 nM
CC1(C)CC(Nc2nc(Nc3cc(O)cc(O)c3)ncc2F)CC(C)(C)N1 [Compound I-383] | 30000 nM
CC(=O)N1CCN(c2ccc(Nc3ncc(F)c(NC4CC(C)(C)N(C)C(C)(C)C4)n3)cc2Cl)CC1 [Compound I-67] | 346 nM
CN1C(C)(C)CC(Nc2nc(Nc3ccc(OCC(N)=O)cc3)ncc2F)CC1(C)C [Compound I-134] | 2430 nM

Compound | IC50
CSc1nnnn1-c1cccc(Nc2ncc(F)c(NC3CC(C)(C)N(C)C(C)(C)C3)n2)c1 [Compound I-399] | 50 nM
CC1(C)CC(Nc2nc(Nc3cccc(-n4cnnn4)c3)ncc2C#N)CC(C)(C)N1 [Compound I-393] | 430 nM
COc1cc(Nc2ncc(C#N)c(NC3CC(C)(C)N(C)C(C)(C)C3)n2)cc(-n2cnnn2)c1 [Compound I-404] | 170 nM
COC(=O)/C=C/N1C(C)(C)CC(Nc2nc(Nc3ccc(OC)c(OC)c3)ncc2F)CC1(C)C [Compound I-297] | 24700 nM
CN1C(C)(C)CC(Nc2nc(Nc3ccc(-c4ccncc4)c(Cl)c3)ncc2F)CC1(C)C [Compound I-99] | 304 nM
CN1CCN(c2ccc(Nc3ncc(Cl)c(NC4CC(C)(C)N(C)C(C)(C)C4)n3)cc2C(F)(F)F)CC1 [Compound I-37] | 511 nM
COc1ccc(Nc2ncc(F)c(NC3CC(C)(C)N(C(C)=O)C(C)(C)C3)n2)cc1Cl [Compound I-213] | 19600 nM
CN1C(C)(C)CC(Nc2nc(Nc3cccc(O)c3)ncc2F)CC1(C)C [Compound I-327] | 5080 nM
CN1C(C)(C)CCC(Nc2nc(Nc3ccc(N4CCOCC4)c(C(F)(F)F)c3)ncc2F)CC1(C)C (stereo not drawn) [Compound I-261, 5-Fluoro-N2-[4-morpholine-3-trifluoromethyl]phenyl-N4-(1,2,2,7,7-pentamethylazepan-4-yl)-2,4-pyrimidinediamine] | 4670 nM
Cc1ccc(Nc2ncc(F)c(NC3CC(C)(C)N(C)C(C)(C)C3)n2)cc1-c1cc2ccccc2s1 [Compound I-189] | 1220 nM
Cc1ccc(Nc2ncc(C)c(NC3CC(C)(C)N(C)C(C)(C)C3)n2)cc1S(N)(=O)=O [Compound I-15] | 6850 nM
CN1C(C)(C)CC(Nc2nc(Nc3ccc(-c4cnn(C)c4)c(F)c3)ncc2F)CC1(C)C [Compound I-150] | 701 nM
CN1C(C)(C)CC(Nc2nc(Nc3ccc(N4CCOCC4)c(C(F)(F)F)c3)ncc2F)C1(C)C (stereo not drawn) [Compound I-287, 5-Fluoro-N2-[4-morpholino-3-(trifluoromethyl)]phenyl-N4-(1,2,2,5,5-pentamethylpyrrolidin-3-yl)-2,4-pyrimidinediamine] | 2190 nM
CC1(C)CC(Nc2nc(Nc3cccc(-n4cnnn4)c3)ncc2C(N)=O)CC(C)(C)N1 [Compound I-392] | 4460 nM
CN1C(C)(C)CC(Nc2nc(Nc3ccc4c(c3)OCO4)ncc2F)CC1(C)C [II-32] | 864 nM

These compounds were tested against T1, PKC theta (Homo sapiens, UniProt Q04759) (assay: PKC assay, fluorescence polarization (Example 2), PKC theta). Details: 5 μM ATP.
T1 construct: purchased Upstate Biotechnologies, Temecula, CA 14-444
Type: biochemical
Experimental: The inhibition of PKC activity was measured by monitoring the production of phosphorylated peptide by fluorescence polarization at different concentrations of the inhibitor. Reactions were carried out in 96-well plate format with a total volume of 20 μL containing 20 mM HEPES, pH 7.4, 5 mM MgCl2, 0.2 mM CaCl2, 1 mM DTT, 0.02% Brij-35, 0.1 mg/mL phosphatidylserine, 0.02 mg/mL dioleoyl-sn-glycerol and 5 μM each of ATP and the peptide substrate. Compounds were first diluted serially in DMSO and then transferred to a solution containing the above concentrations of HEPES, MgCl2, CaCl2, DTT, and Brij-35 to yield 5× compound solutions in 2% DMSO, which was then added to the reaction solution. Reactions were initiated by the addition of PKC at a typical concentration as described in Table VI, and then allowed to incubate at room temperature for 20 min. At the end of this time, a combination of quench (EDTA) and detection (peptide tracer and antibody) reagents was added using the protocol of Invitrogen P2748.

T1 sequence (Q04759 whole entry): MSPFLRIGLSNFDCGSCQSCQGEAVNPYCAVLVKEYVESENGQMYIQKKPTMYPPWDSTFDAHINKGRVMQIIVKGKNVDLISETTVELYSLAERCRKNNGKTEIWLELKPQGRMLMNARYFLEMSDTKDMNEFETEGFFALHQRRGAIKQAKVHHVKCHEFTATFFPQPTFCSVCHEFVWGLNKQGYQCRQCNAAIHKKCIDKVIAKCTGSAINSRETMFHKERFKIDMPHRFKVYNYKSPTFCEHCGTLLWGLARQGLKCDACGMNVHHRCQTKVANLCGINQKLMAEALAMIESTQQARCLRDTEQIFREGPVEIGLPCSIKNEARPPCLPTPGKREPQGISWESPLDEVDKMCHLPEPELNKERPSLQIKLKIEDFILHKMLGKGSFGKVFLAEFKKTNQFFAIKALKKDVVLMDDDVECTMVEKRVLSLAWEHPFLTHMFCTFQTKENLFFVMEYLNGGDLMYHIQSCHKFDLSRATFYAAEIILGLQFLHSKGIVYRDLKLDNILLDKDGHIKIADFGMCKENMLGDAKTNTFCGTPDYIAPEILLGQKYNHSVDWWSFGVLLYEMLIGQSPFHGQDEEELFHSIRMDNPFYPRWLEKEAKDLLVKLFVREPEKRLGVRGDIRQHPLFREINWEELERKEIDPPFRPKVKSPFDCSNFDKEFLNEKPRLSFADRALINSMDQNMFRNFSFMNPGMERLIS

IC50 | Compound
379 nM | CC(=O)N1C(C)CN(c2cc(Nc3ncc(F)c(NC4CC(C)(C)N(C)C(C)(C)C4)n3)ccc2Cl)CC1C (stereo not drawn) [Compound I-251]
6.06 nM | CN1C(=O)COc2cc(Nc3ncc(F)c(NC4CC(C)(C)N(C)C(C)(C)C4)n3)ccc21 [II-6]
